This note sets out measurements from patent US20110039784A1, “COMPOSITION FOR TREATMENT OF ERECTILE DYSFUNCTION” (SUNGKYUNKWAN UNIVERSITY Foundation for Corporate …, priority 2009, published 2011).

The target of experiment [1] is T1, TRPC6 ion channel (Mus musculus, UniProt Q61143).
T1 construct: expressed in transfected cells; host or cells: HEK 293
T1 sequence (Q61143 1-930): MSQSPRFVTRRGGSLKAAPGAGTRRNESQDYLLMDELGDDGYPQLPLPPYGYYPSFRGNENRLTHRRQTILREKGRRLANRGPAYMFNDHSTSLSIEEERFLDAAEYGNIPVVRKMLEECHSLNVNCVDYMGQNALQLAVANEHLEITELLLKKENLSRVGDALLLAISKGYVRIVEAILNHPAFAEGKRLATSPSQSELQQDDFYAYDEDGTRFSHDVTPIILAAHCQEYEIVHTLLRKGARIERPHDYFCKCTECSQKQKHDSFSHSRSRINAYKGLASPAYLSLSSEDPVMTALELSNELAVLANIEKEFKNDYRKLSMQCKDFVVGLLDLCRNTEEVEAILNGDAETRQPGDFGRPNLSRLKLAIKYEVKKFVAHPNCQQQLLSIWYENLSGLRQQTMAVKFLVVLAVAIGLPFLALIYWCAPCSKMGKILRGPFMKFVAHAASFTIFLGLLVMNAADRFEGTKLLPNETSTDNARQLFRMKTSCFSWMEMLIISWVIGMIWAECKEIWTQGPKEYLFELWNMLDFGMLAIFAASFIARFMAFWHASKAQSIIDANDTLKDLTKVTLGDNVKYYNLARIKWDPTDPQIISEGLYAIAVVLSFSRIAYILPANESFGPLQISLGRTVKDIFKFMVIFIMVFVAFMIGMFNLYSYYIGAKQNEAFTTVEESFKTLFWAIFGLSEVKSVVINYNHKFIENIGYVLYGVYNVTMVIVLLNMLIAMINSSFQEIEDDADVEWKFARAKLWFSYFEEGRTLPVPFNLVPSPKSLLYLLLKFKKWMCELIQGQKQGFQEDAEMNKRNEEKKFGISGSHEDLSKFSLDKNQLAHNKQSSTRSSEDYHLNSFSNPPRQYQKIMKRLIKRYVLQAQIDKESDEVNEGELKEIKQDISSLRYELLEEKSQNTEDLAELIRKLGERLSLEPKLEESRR
In words: Whole-cell patch clamp in HEK 293 cells transfected with wild-type TRPC6. In kind it is cell-based. As to conditions: for whole-cell current at −100 mV: TRPC6-transfected HEK cells, n=5; for change of whole-cell current on application: membrane potential held at −60 mV, symmetrical 140 mM Cs, 200 μM PE or 100 μM CCh. As to the method: The physiological function of the TRPC6 ion channel was examined in HEK cells which are free of ion channels. In this regard, GFP-TRPC6 pcDNA was transfected into HEK cells using a liposome and expressed therein. After the membrane potential was held at −60 mV, whole-cell currents were recorded in symmetrical 140 mM Cs conditions. […] At −100 mV, the current was −112.0±18.1 pA (n=5) in a 140 mM extracellular Cs condition, −90.0±15.0 pA (n=5) after adding 200 μM PE, and −460±169.5 pA (n=5) after adding 100 μM CCh. […] The PE/CCh-induced current was obtained after leak subtraction was performed (FIG. 3C).

Experiment [2] concerns the target T2, TRPC6 ion channel (Mus musculus, UniProt Q61143).
T2 construct: expressed in transfected cells; host or cells: human corporal smooth muscle cells
T2 sequence (Q61143 1-930 A105V/R114W/A184S/Y371D/R436P/G437R/T905S): T1 sequence (Q61143 1-930) with A105V, R114W, A184S, Y371D, R436P, G437R, T905S
Kind of experiment: Whole-cell patch clamp in human corporal smooth muscle cells transfected with wild-type or dominant negative TRPC6. The format is cell-based. The following applies: after ET-1, 1 mM La^3+. How it is done:
As described with HEK cells, the wild-type TRPC6 cDNA was expressed. After being selected, green-fluorescent cells were examined for the activity of the ion channel using a whole-cell patch clamp technique. At the −60 mV holding membrane potential with the external solution changed from Na-rich normal tyrode solution to 140 mM Cs, the inward current was increased; whereas no currents changed upon external treatment with ET-1, a typical inducer of smooth muscle contraction. At −100 mV, the current was −535.9±162.4 pA (n=5) in 140 mM extracellular Cs, and −462.1±150.5 pA (n=5) after adding 100 nM ET-1. The current-voltage (I-V) relationship of corporal smooth muscle cells was similar to that of HEK cells activated by CCh. […] (FIG. 4)
For genetic regulation of the TRPC6 ion channel in corporal smooth muscle cells, the cells transfected with the dominant negative form of the TRPC6 ion channel were examined for electrophysiological function.

In experiment [3] the test system is maxi-K ion channel. Kind of experiment: Whole-cell patch clamp in human corporal smooth muscle cells expressing rslo gene. In kind it is cell-based, rat. The following applies: rslo-expressed human corporal smooth muscle cells. The source says:
As described with HEK cells, the rslo pcDNA was expressed. The ion channels were examined for activity using a whole-cell patch clamp technique. Under the condition of a pipette solution having a calcium concentration of pCa 6.5, the current was 60.1±7.2 pA/pF (n=22) at a membrane potential of +60 mV in the rslo-expressed cells, which increased in outward current four-fold compared to that of control (16.4±2 pA/pF n=9) (FIG. 9A). Under the condition of an intracellular calcium concentration of pCa 7, the current was 12.8±2 pA/pF (+60 mV, n=9) in the control and 38.1±7 pA/pF (+60 mV, n=13) in the rslo-expressed cells (FIG. 9B). […] The current-voltage (I-V) relationship was similar to that recorded in the HEK cells.

For experiment [4], the target named is T3, maxi-K ion channel (Rattus norvegicus, UniProt Q62976).
T3 construct: GFP; expressed in transfected cells; host or cells: HEK 293
In words: Whole-cell patch clamp in HEK 293 cells expressing rslo gene. In kind it is cell-based. The following applies: rslo-expressed HEK cells. The source says: The maxi-K ion channel is known to play an important role in reducing the contraction of smooth muscle responsible for the modulation of penile erection and relaxation. Together with GFP, the α-subunit (rSlo) coding sequence of calcium-dependent potassium ion channel cloned from the rat brain was subcloned into pcDNA3.1(+). After the expression of rSlo gene in HEK cells, green-fluorescent cells were selected under a mercury lamp light and observed for the electrophysiological properties of the ion channels using a whole-cell patch clamp technique. Cells were used within 24˜48 hrs after expression. […] At an intracellular calcium level of pCa 7, the current was read 10.4±3.2 pA/pF (+60 mV, n=6) in the control and 100.5±15.4 pA/pF (n=6) in the rslo-expressed cells (FIG. 8B).
A general note: Patch clamp records ionic current or voltage across a cell membrane.

In experiment [5] the test system is corporal smooth muscle cells. In words: Fura-2 intracellular calcium level in cultured corporal smooth muscle cells, ET-1 induced. The format is cell-based, human. The following applies: control corporal smooth muscle cells, n=3. How it is done: After fura-2 was loaded thereto, cultured corporal smooth muscle cells were measured for intracellular calcium levels. The extracellular addition of 50 nM endothelin-1 induced an increase in intracellular calcium level, with the separation of an initial increasing phase and a late constant phase (FIG. 7A).
Between the TRPC6 cDNA-transfected cells and the control cells, there are little differences in the initial phase. […] Intracellular calcium levels were also measured in the corporal smooth muscle cells where the dominant negative form of TRPC6 was expressed. […] Collectively, F340/380, accounting for ET-1-induced calcium increase, was measured to be 1.47±0.03 (n=3) in corporal smooth muscle cells (control), 1.53±0.09 (n=3) in corporal smooth muscle cells where TRPC6 was overexpressed, and 0±0 (n=3) in corporal smooth muscle cells where the dominant negative form of TRPC6 was expressed (FIG. 7D).
(In general: Calcium flux is commonly read through the fluorescence of an indicator in the cells.)

Substitutions are numbered along the chain they refer to. Ends that are not written are not given here.

T3 sequence (Q62976 whole entry): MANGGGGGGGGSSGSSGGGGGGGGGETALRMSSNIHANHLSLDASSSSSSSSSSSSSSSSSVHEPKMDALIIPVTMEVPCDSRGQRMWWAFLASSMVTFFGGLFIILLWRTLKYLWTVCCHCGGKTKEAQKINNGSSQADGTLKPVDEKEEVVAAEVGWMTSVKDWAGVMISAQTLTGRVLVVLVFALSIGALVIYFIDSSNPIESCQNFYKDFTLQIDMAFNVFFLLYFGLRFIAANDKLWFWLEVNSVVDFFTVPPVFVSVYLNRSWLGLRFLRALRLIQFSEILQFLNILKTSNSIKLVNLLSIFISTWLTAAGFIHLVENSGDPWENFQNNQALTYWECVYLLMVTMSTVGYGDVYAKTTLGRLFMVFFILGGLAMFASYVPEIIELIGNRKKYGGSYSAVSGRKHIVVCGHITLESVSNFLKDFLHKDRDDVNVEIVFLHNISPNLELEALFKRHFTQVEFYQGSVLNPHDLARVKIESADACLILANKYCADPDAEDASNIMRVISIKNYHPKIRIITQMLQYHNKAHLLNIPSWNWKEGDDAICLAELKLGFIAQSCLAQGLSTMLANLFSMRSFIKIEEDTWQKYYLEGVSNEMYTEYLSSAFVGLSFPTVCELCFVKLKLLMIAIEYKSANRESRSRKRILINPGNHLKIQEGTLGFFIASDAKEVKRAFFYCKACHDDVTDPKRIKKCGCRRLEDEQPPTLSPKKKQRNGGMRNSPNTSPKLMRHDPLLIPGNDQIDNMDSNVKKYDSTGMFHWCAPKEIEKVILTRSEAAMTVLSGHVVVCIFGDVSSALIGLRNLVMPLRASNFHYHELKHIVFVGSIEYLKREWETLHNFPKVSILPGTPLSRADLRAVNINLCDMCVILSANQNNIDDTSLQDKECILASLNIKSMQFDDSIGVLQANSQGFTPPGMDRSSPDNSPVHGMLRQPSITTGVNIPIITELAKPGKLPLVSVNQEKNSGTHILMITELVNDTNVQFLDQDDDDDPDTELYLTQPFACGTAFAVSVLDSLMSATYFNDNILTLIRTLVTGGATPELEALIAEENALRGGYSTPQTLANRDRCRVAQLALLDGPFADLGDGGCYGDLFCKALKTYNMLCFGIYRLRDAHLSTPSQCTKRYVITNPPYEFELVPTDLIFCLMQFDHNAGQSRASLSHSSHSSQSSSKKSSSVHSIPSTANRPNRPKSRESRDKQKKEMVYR

Consider `C[N+](C)(C)CCOC(N)=O` [CCh, carbachol], for which the “whole-cell current at −100 mV” value on TRPC6 ion channel [1] (after adding 100 μM CCh) is on record as −460±169.5 pA. Besides, the “change of whole-cell current on application” value at TRPC6 ion channel [1] was “increased inward currents”.
For `[La+3]` [La^3+], at TRPC6 ion channel [2], the effect on current result was “completely decreased”.
Take `CNC[C@H](O)c1cccc(O)c1` [PE, phenylephrine]: on TRPC6 ion channel [1] (after adding 200 μM PE), the “whole-cell current at −100 mV” value is on record as −90.0±15.0 pA. For the same compound, the “change of whole-cell current on application” value on TRPC6 ion channel [1] is listed as “nearly no currents changed”.
Consider `CC[N+](CC)(CC)CC` [TEA], for which the “effect on outward current” value with maxi-K ion channel [3] and on maxi-K ion channel [4] was “decreased in a dose-dependent manner” each time.
“endothelin-1 (CSCSSLMDKECVYFCHLDIIW; ends and bridges not checked; cysteine pairing not given here; UniProt P05305 53-73, looked up) [ET-1, a typical inducer of smooth muscle contraction]”: the “F340/380, accounting for ET-1-induced calcium increase” value in experiment [5] was 1.47±0.03.
